Experimental data as given in patent US9012200B2, “Composition of bacterial strains, bioremediation mixture and use of this composition for the removal of contaminants from the soil and the method for purifying the soil contaminants” (priority 2012, dated 2015).
≈ marks a conversion by molar mass, not a printed value. Where two headings read alike, the source gives them in different places.

Legend:
Assay type in all cases: cell-based
[1] = tested on: Pseudomonas sp. strain 4G; test: Antibiotic MIC by E-test; settings: 24 h; for MIC: Pseudomonas, read-out: MIC threshold values for a given antibiotic
Experimental: (§1) A disc diffusion method was performed to determine the susceptibility of bacteria to the selected antibiotics. We used discs soaked with the antibiotic of a well-defined concentration (BioMerioux) (Table 2) and the minimal inhibitory concentration test was carried out, using E-tests (Oxoid) (Table 3).
(§2) In the next stage of the research, MIC values of a given antibiotic for the investigated strains were determined, meaning the lowest concentration of the drug, expressed in mg/L, determined in vitro, which inhibits the growth of bacteria at a defined inoculum density, within a given time (Hryniewicz et at, 2001). These studies allow for the closer determination of the degree of susceptibility of bacteria to the applied antibiotics.
(§3) A bacterial suspension was evenly distributed on dishes with ready-to-use MHA medium (Oxoid), and then plastic testing strips (E-tests) soaked with an antibiotic with a concentration gradient were placed thereon. The dishes were incubated at 25-30° C. for 24 h, and the test results were read after this time.
(§4) The intersection of elliptical zone of inhibition, which appeared around the test strip, with the value indicator on the gradient scale of the strip, determined the lowest concentration of antibiotic, inhibiting growth of the microorganism (MIC). Similarly as in the disc diffusion method, the obtained results were compared with the guidelines contained in the relevant standards.

[2] = tested on: Brevundimonas sp. strain 2N; test: Antibiotic MIC by E-test; settings: 24 h; for MIC: Brevundimonas, read-out: MIC threshold values for a given antibiotic
Experimental: as §1, §2, §3, §4

[3] = tested on: Stenotrophomonas sp. strain 5L; test: Antibiotic MIC by E-test; settings: 24 h; for MIC: Stenotrophomonas, read-out: MIC threshold values for a given antibiotic
Experimental: as §1, §2, §3, §4

[4] = tested on: Stenotrophomonas sp. strain 2L; test: Antibiotic MIC by E-test; settings: 24 h; for MIC: Stenotrophomonas, read-out: MIC threshold values for a given antibiotic
Experimental: as §1, §2, §3, §4

[5] = tested on: Brevundimonas sp. strain 6N; test: Antibiotic MIC by E-test; settings: 24 h; for MIC: Brevundimonas, read-out: MIC threshold values for a given antibiotic
Experimental: as §1, §2, §3, §4

[6] = tested on: Stenotrophomonas sp. strain 3N; test: Antibiotic MIC by E-test; settings: 24 h; for MIC: Stenotrophomonas, read-out: MIC threshold values for a given antibiotic
Experimental: as §1, §2, §3, §4

[7] = tested on: Brevundimonas sp. strain 5N; test: Antibiotic MIC by E-test; settings: 24 h; for MIC: Brevundimonas, read-out: MIC threshold values for a given antibiotic
Experimental: as §1, §2, §3, §4

[8] = tested on: Arthrobacter sp. strain 1N; test: Antibiotic MIC by E-test; settings: 24 h; for MIC: Arthrobacter, read-out: MIC threshold values for a given antibiotic
Experimental: as §1, §2, §3, §4

[9] = tested on: Pseudomonas sp. strain 3G; test: Antibiotic MIC by E-test; settings: 24 h; for MIC: Pseudomonas, read-out: MIC threshold values for a given antibiotic
Experimental: as §1, §2, §3, §4

[10] = tested on: Achromobacter sp. strain 4P; test: Antibiotic MIC by E-test; settings: 24 h; for MIC: Achromobacter, read-out: MIC threshold values for a given antibiotic
Experimental: as §1, §2, §3, §4

[11] = tested on: Stenotrophomonas sp. strain 6L; test: Antibiotic MIC by E-test; settings: 24 h; for MIC: Stenotrophomonas, read-out: MIC threshold values for a given antibiotic
Experimental: as §1, §2, §3, §4

[12] = tested on: Pseudomonas sp. strain 4G; test: Disc diffusion antibiotic susceptibility
Experimental: as §1
(§5) A McFarland's 0.5 inoculum was prepared from each strain's culture, using a densitometer (EMO). Then, using sterile cotton swabs, the suspension of bacterial cells was spread on dishes with ready-to-use MHA medium (Oxoid), and after 15 minutes, discs soaked with antibiotics at defined concentrations were placed on them.
(§6) The dishes were incubated at 25-30° C., and the results were read after 24 and 48 hours. The measure of susceptibility of a tested strain to a given antibiotic was the size of the inhibition zone which formed around the disc soaked with the antibiotic. The results read (sizes of zones measured in mm) were compared with the data contained in the European Committee on Antimicrobial Susceptibility Testing (EUCAST) standards from 2010 (Table 4).
(§7) The measure of susceptibility of the tested bacterial strain to a given antibiotic was the size of the inhibition zone which formed around the disc (Table 5).

[13] = tested on: Brevundimonas sp. strain 2N; test: Disc diffusion antibiotic susceptibility
Experimental: as §1, §5, §6, §7

[14] = tested on: Stenotrophomonas sp. strain 5L; test: Disc diffusion antibiotic susceptibility
Experimental: as §1, §5, §6, §7

[15] = tested on: Stenotrophomonas sp. strain 2L; test: Disc diffusion antibiotic susceptibility
Experimental: as §1, §5, §6, §7

[16] = tested on: Brevundimonas sp. strain 6N; test: Disc diffusion antibiotic susceptibility
Experimental: as §1, §5, §6, §7

[17] = tested on: Stenotrophomonas sp. strain 3N; test: Disc diffusion antibiotic susceptibility
Experimental: as §1, §5, §6, §7

[18] = tested on: Brevundimonas sp. strain 5N; test: Disc diffusion antibiotic susceptibility
Experimental: as §1, §5, §6, §7

[19] = tested on: Arthrobacter sp. strain 1N; test: Disc diffusion antibiotic susceptibility
Experimental: as §1, §5, §6, §7

[20] = tested on: Pseudomonas sp. strain 3G; test: Disc diffusion antibiotic susceptibility
Experimental: as §1, §5, §6, §7

[21] = tested on: Achromobacter sp. strain 4P; test: Disc diffusion antibiotic susceptibility
Experimental: as §1, §5, §6, §7

[22] = tested on: Stenotrophomonas sp. strain 6L; test: Disc diffusion antibiotic susceptibility
Experimental: as §1, §5, §6, §7

Compound	MIC [1] [mg/L]	MIC [2] [mg/L]	MIC [3] [mg/L]	MIC [4] [mg/L]	MIC [5] [mg/L]	MIC [6] [mg/L]	MIC [7] [mg/L]	MIC ([8]; strain 1N, E-test) [mg/L]	MIC [9] [mg/L]	MIC [11] [mg/L]	Size of the growth inhibition zone ([12]; 24 h) [mm]	Size of the growth inhibition zone ([13]; 24 h) [mm]	Size of the growth inhibition zone ([14]; 24 h) [mm]	Size of the growth inhibition zone ([15]; 24 h) [mm]	Size of the growth inhibition zone ([16]; 24 h) [mm]	Size of the growth inhibition zone ([17]; 24 h) [mm]	Size of the growth inhibition zone ([18]; 24 h) [mm]	Size of the growth inhibition zone ([19]; 24 h) [mm]	Size of the growth inhibition zone ([20]; 24 h) [mm]	Size of the growth inhibition zone ([21]; 24 h) [mm]	other results
Cc1cc(NS(=O)(=O)c2ccc(N)cc2)no1 [RL, sulfamethoxazole]	≥ 1020	12 (≈ 47.4 µM)	8 (≈ 31.6 µM)	6 (≈ 23.7 µM)	≥ 1020	12 (≈ 47.4 µM)	≥ 1020	12 (≈ 47.4 µM)	≥ 1020	12 (≈ 47.4 µM)	0	0	0	0	0	0	0	0	0	0	MIC ([10]; strain 4P, E-test): 12 mg/L (≈ 47.4 µM); Size of the growth inhibition zone ([22]; 24 h): 0 mm
CO/N=C(\C(=O)N[C@@H]1C(=O)N2C(C(=O)O)=C(CSc3nc(=O)c(=O)[nH]n3C)CS[C@H]12)c1csc(N)n1 [TX, ceftriaxone]	≥ 256	≥ 256	≥ 256	≥ 256	≥ 256	≥ 256	≥ 256	≥ 256	≥ 256	≥ 256											MIC [10]: 16 mg/L (≈ 28.9 µM)
CCn1cc(C(=O)O)c(=O)c2cc(F)c(N3CCNCC3)cc21 [NX, norfloxacin]	> 256	256 (≈ 802 µM)	32 (≈ 100 µM)	128 (≈ 401 µM)	96 (≈ 301 µM)	128 (≈ 401 µM)	128 (≈ 401 µM)	96 (≈ 301 µM)	192 (≈ 601 µM)	128 (≈ 401 µM)											MIC ([10]; strain 4P, E-test): 256 mg/L (≈ 802 µM)
CN(C)[C@@H]1C(O)=C(C(N)=O)C(=O)[C@@]2(O)C(O)=C3C(=O)c4c(O)cccc4[C@@](C)(O)[C@H]3C[C@@H]12 [TE, tetracycline]	6 (≈ 13.5 µM)	6 (≈ 13.5 µM)	8 (≈ 18 µM)	6 (≈ 13.5 µM)	6 (≈ 13.5 µM)	6 (≈ 13.5 µM)	6 (≈ 13.5 µM)	6 (≈ 13.5 µM)	6 (≈ 13.5 µM)	6 (≈ 13.5 µM)	19	18	19	17	17	19	18	17	17	19	MIC ([10]; strain 4P, E-test): 12 mg/L (≈ 27 µM); Size of the growth inhibition zone ([12]; 48 h): 0 mm; Size of the growth inhibition zone ([13]; 48 h): 0 mm; Size of the growth inhibition zone ([14]; 48 h): 0 mm; Size of the growth inhibition zone ([15]; 48 h): 0 mm; Size of the growth inhibition zone ([16]; 48 h): 0 mm; Size of the growth inhibition zone ([17]; 48 h): 0 mm; Size of the growth inhibition zone ([18]; 48 h): 0 mm; Size of the growth inhibition zone ([19]; 48 h): 0 mm; Size of the growth inhibition zone ([20]; 48 h): 0 mm; Size of the growth inhibition zone ([21]; 48 h): 0 mm; Size of the growth inhibition zone ([22]; 24 h): 17 mm; Size of the growth inhibition zone ([22]; 48 h): 0 mm
gentamicin [CN]											0	24	22	24	23	25	24	23	22	22	MIC threshold values for a given antibiotic [1]: ≧256 μg/ml; MIC threshold values for a given antibiotic [2]: 8 mg/L; MIC threshold values for a given antibiotic [3]: 8 mg/L; MIC threshold values for a given antibiotic [4]: 4 mg/L; MIC threshold values for a given antibiotic [5]: 8 mg/L; MIC threshold values for a given antibiotic [6]: 8 mg/L; MIC threshold values for a given antibiotic [7]: 4 mg/L; MIC threshold values for a given antibiotic ([8]; strain 1N, E-test): 8 mg/L; MIC threshold values for a given antibiotic [9]: ≧256 μg/ml; MIC threshold values for a given antibiotic ([10]; strain 4P, E-test): 4 mg/L; MIC threshold values for a given antibiotic [11]: 256 mg/L; Size of the growth inhibition zone ([13]; 48 h): 21 mm; Size of the growth inhibition zone ([15]; 48 h): 19 mm; Size of the growth inhibition zone ([16]; 48 h): 20 mm; Size of the growth inhibition zone ([17]; 48 h): 0 mm; Size of the growth inhibition zone ([19]; 48 h): 18 mm; Size of the growth inhibition zone ([20]; 48 h): 20 mm; Size of the growth inhibition zone ([21]; 48 h): 21 mm; Size of the growth inhibition zone ([22]; 24 h): 0 mm
O=C(O)c1cn(C2CC2)c2cc(N3CCNCC3)c(F)cc2c1=O [CIP, ciprofloxacin]	≥ 32	≥ 32	4 (≈ 12.1 µM)	≥ 32	≥ 32	≥ 32	≥ 32	≥ 32	≥ 32	≥ 32	0	0	10	0	0	0	0	0	0	0	MIC ([10]; strain 4P, E-test): ≥ 32 mg/L; Size of the growth inhibition zone ([14]; 48 h): 0 mm; Size of the growth inhibition zone ([22]; 24 h): 0 mm
CN[C@H](CC(C)C)C(=O)N[C@H]1C(=O)N[C@@H](CC(N)=O)C(=O)N[C@H]2C(=O)N[C@H]3C(=O)N[C@H](C(=O)N[C@H](C(=O)O)c4cc(O)cc(O)c4-c4cc3ccc4O)[C@H](O)c3ccc(c(Cl)c3)Oc3cc2cc(c3O[C@@H]2O[C@H](CO)[C@@H](O)[C@H](O)[C@H]2O[C@H]2C[C@](C)(N)[C@H](O)[C@H](C)O2)Oc2ccc(cc2Cl)[C@H]1O [VA, vancomycin]											0	0	0	0	0	0	0	0	0	0	MIC [8]: ≥ 256 mg/L; Size of the growth inhibition zone ([22]; 24 h): 0 mm
CC[C@H]1OC(=O)[C@H](C)[C@@H](O[C@H]2C[C@@](C)(OC)[C@@H](O)[C@H](C)O2)[C@H](C)[C@@H](O[C@@H]2O[C@H](C)C[C@H](N(C)C)[C@H]2O)[C@](C)(O)C[C@@H](C)C(=O)[C@H](C)[C@@H](O)[C@]1(C)O [E, erythromycin]	≥ 256	128 (≈ 174 µM)	≥ 256	≥ 256	256 (≈ 349 µM)	≥ 256	256 (≈ 349 µM)	256 (≈ 349 µM)	≥ 256	≥ 256	0	0	0	0	0	0	0	0	0	0	MIC ([10]; strain 4P, E-test): 256 mg/L (≈ 349 µM); Size of the growth inhibition zone ([22]; 24 h): 0 mm
